Values quoted from earlier work as cited in patent publication US8492403B2, “Bicyclic derivatives as modulators of voltage gated ion channels” (Vertex Pharmaceuticals Incorporated, priority 2005, dated 2013).

Legend:
NaV 1.3 = NaV 1.3 (Homo sapiens, UniProt Q9NY46); conditions: read-out: TTX IC50; cited from earlier work
NaV 1.8 = NaV 1.8 (Homo sapiens, UniProt Q9Y5Y9); conditions: read-out: TTX IC50; cited from earlier work
[1] = neuropathic pain; cited from earlier work

Sequence of NaV 1.8 (Q9Y5Y9 whole entry, looked up): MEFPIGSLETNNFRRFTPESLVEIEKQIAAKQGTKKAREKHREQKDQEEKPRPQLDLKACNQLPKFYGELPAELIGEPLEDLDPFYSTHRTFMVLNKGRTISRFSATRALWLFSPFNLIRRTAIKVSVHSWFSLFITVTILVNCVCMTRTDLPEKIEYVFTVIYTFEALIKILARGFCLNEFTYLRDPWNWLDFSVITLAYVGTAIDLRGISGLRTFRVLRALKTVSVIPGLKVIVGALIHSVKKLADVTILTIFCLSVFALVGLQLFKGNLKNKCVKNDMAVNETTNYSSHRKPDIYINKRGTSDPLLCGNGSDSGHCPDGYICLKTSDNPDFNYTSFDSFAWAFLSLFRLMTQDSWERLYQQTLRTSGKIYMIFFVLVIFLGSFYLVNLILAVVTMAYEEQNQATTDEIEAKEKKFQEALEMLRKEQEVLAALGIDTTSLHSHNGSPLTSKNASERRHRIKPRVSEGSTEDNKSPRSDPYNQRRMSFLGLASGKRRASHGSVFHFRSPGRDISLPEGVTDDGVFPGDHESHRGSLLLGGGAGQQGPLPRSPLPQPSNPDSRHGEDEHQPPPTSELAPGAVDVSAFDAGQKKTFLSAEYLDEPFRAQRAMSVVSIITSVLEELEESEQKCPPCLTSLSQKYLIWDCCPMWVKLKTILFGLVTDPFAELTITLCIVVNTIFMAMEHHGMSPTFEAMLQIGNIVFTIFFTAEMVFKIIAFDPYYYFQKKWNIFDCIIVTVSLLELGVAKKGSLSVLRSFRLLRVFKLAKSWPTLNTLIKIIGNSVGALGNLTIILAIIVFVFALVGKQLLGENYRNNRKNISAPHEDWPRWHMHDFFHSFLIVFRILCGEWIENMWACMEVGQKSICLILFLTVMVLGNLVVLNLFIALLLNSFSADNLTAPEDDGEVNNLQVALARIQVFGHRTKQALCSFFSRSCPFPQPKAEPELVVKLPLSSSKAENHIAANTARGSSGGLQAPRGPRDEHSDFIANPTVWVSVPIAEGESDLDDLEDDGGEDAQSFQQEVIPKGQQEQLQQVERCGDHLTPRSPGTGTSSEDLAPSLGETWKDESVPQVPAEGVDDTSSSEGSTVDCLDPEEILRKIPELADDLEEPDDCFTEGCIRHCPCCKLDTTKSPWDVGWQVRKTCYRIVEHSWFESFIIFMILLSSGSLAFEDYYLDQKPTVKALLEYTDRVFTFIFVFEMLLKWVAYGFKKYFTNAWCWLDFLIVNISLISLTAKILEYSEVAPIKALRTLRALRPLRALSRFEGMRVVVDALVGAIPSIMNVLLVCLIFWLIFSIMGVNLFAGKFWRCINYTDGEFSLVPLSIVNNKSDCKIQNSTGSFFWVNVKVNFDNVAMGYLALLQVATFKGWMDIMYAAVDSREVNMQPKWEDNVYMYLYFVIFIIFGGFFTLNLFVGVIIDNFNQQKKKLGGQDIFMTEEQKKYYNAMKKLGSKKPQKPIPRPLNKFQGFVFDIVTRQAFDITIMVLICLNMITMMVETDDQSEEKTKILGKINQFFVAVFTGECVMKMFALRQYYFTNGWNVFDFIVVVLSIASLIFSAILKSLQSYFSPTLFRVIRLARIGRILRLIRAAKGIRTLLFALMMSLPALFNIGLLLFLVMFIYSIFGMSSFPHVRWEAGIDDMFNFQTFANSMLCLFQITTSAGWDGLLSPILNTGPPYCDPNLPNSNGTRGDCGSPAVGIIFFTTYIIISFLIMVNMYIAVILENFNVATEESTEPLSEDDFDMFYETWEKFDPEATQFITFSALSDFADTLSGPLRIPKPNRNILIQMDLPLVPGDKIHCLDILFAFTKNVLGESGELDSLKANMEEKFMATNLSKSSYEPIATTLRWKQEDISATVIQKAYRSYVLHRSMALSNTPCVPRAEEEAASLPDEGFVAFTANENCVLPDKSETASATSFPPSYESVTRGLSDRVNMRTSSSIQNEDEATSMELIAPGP
Sequence of NaV 1.3 (Q9NY46 whole entry, looked up): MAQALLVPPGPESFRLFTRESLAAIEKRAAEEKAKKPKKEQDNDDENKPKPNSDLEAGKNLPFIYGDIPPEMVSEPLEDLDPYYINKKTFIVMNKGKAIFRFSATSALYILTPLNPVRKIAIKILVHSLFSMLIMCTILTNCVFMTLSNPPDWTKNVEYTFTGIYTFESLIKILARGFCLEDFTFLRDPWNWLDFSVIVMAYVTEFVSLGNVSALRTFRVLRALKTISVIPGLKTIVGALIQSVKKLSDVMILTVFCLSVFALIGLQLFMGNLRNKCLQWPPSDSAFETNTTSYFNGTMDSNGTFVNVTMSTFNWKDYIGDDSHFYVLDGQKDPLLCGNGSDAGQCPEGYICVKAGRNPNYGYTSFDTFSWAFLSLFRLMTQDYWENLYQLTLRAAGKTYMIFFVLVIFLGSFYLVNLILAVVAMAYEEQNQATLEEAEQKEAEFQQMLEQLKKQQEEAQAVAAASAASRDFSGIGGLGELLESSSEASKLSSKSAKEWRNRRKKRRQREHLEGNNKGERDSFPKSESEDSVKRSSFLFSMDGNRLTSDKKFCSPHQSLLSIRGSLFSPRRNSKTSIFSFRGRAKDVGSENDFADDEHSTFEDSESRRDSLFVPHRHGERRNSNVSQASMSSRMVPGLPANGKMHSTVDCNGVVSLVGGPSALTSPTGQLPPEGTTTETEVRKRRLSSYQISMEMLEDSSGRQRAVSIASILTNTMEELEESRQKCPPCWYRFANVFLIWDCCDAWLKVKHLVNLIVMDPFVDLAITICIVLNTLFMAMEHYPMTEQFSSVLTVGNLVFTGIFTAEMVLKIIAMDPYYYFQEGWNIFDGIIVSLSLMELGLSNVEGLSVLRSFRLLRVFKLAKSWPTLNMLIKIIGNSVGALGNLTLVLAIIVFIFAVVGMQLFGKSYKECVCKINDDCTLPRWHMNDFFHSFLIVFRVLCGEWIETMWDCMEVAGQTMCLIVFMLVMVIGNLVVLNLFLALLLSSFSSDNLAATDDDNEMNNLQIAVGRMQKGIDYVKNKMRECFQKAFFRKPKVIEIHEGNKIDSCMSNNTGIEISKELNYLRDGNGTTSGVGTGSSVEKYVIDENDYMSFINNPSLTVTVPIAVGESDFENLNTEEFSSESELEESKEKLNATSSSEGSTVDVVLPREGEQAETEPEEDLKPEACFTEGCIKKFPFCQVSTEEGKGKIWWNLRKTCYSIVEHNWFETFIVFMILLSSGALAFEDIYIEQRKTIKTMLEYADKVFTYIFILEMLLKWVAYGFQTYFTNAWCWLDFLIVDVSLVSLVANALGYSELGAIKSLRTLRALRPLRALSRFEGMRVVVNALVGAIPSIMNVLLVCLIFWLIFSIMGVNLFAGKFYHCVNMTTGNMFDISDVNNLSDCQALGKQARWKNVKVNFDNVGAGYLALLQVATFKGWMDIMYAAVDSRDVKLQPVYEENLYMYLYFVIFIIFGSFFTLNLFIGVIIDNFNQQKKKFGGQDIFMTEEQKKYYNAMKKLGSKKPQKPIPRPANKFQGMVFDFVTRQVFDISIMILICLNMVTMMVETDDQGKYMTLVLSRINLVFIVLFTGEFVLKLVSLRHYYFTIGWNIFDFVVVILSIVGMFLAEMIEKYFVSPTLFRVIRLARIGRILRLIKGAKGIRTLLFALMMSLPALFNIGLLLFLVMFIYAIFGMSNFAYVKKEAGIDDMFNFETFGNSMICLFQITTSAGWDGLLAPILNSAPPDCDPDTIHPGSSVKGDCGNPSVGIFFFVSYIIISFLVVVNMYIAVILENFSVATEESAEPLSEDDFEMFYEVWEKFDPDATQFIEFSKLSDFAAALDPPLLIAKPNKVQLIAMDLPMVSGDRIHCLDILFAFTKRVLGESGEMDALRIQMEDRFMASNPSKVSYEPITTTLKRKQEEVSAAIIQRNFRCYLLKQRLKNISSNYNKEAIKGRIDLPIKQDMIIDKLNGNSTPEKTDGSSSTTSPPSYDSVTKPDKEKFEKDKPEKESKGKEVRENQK

Compound | IC50 (NaV 1.3) | IC50 (NaV 1.8) | share of patients in which it works [1]
NC1=N[C@H](O)[C@H]2[C@H]3O[C@]4(O)O[C@@H]([C@@H](O)[C@@]2(N1)[C@@H]4O)[C@]3(O)CO [TTX, tetrodotoxin] | 15 nM | > 50 µM | 
NCC1(CC(=O)O)CCCCC1 [Gabapentin] |  |  | 60%
